Experimental data taken from patent US20230127944A1, “BROAD-SPECTRUM CARBAPENEMS” (priority 2019, published 2023).
In brackets after ≈: the same amount, converted by molar mass.

Key:
Type in all cases: cell-based
[1] = system: P. aeruginosa 35151 (hyper-permeable strain); test: broth microdilution MIC assay, P. aeruginosa 35151; details: Pseudomonas aeruginosa, read-out: MIC, P. aeruginosa 35151
Outline: (§1)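 Steps: ≥5 colonies into cation-supplemented MH broth, shaken 3-5 h at 37° C; OD600-adjusted inoculum added to 2-fold compound dilutions (5×10^5 CFU/mL final); 16-20 h incubation at 37° C; visual MIC endpoint (no growth).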

S. aureus USA 600 = test: broth microdilution MIC assay, S. aureus USA600; details: Staphylococcus aureus; S. aureus USA600 (MRSA); read-out: MIC, S. aureus USA600
Outline: as §1

[2] = system: P. aeruginosa ATCC 27853 (wild-type/QC strain); test: broth microdilution MIC assay, P. aeruginosa 27853; details: Pseudomonas aeruginosa, ATCC27853; read-out: MIC, P. aeruginosa 27853
Outline: as §1

[3] = system: E. coli ATCC 25922 (wild-type/QC strain); test: broth microdilution MIC assay, E. coli 25922; details: Escherichia coli, ATCC25922; read-out: MIC, E. coli 25922
Outline: as §1

[4] = system: S. aureus ATCC 33591 (methicillin-resistant); test: broth microdilution MIC assay, S. aureus 33591; details: Staphylococcus aureus, ATCC33591; S. aureus 33591, methicillin-resistant; read-out: MIC, S. aureus 33591
Outline: as §1

S. aureus USA 300 = test: broth microdilution MIC assay, S. aureus USA300; details: Staphylococcus aureus; S. aureus USA300 (MRSA); read-out: MIC, S. aureus USA300
Outline: as §1

P. aeruginosa Paeβ-17 = test: broth microdilution MIC assay, P. aeruginosa Paeβ-17; details: Pseudomonas aeruginosa, read-out: MIC, P. aeruginosa Paeβ-17
Outline: as §1

[5] = system: P. aeruginosa ΔmexAB-OprM (an efflux pump knockout); test: broth microdilution MIC assay, P. aeruginosa ΔmexAB-OprM; details: Pseudomonas aeruginosa, read-out: MIC, P. aeruginosa ΔmexAB-OprM
Outline: as §1

SMILES	MIC [1] [mg/L]	MIC (S. aureus USA 600) [mg/L]	MIC [2] [mg/L]	MIC [3] [mg/L]	MIC [4] [mg/L]	MIC (S. aureus USA 300) [mg/L]	MIC (P. aeruginosa Paeβ-17) [mg/L]	MIC [5] [mg/L]
C[C@@H](O)[C@H]1C(=O)N2C(C(=O)O)=C(S[C@@H]3CCN([C@@H]4CC[C@@H](N)C4)C3)[C@H](C)[C@H]12 [Example 35, (4R,5S,6S)-3-(((R)-1-((1R,3R)-3-aminocyclopentyl)pyrrolidin-3-yl)thio)-6-((R)-1-hydroxyethyl)-4-methyl-7-oxo-1-azabicyclo[3.2.0]hept-2-ene-2-carboxylic acid]	< 1	1 to 4 (≈ 2.53 to 10.1 µM)	1 to 4 (≈ 2.53 to 10.1 µM)	< 1	1 to 4 (≈ 2.53 to 10.1 µM)	1 to 4 (≈ 2.53 to 10.1 µM)	8 to 32 (≈ 20.2 to 80.9 µM)	1 to 4 (≈ 2.53 to 10.1 µM)
C[C@@H](O)[C@H]1C(=O)N2C(C(=O)O)=C(SC3CN([C@H]4CC[C@H](N)C4)C3)[C@H](C)[C@H]12 [Example 5, (4R,5S,6S)-3-((1-((1S,3S)-3-aminocyclopentyl)azetidin-3-yl)thio)-6-((R)-1-hydroxyethyl)-4-methyl-7-oxo-1-azabicyclo[3.2.0]hept-2-ene-2-carboxylic acid]	< 1	1 to 4 (≈ 2.62 to 10.5 µM)	1 to 4 (≈ 2.62 to 10.5 µM)	< 1	1 to 4 (≈ 2.62 to 10.5 µM)	1 to 4 (≈ 2.62 to 10.5 µM)	8 to 32 (≈ 21 to 83.9 µM)	1 to 4 (≈ 2.62 to 10.5 µM)
C[C@@H](O)[C@H]1C(=O)N2C(C(=O)O)=C(S[C@H]3C[C@H](N[C@@H]4CC[C@H](N)C4)C3)[C@H](C)[C@H]12 [Example 70, (4R,5S,6S)-3-(((1R,3R)-3-(((1R,3S)-3-aminocyclopentyl)amino)cyclobutyl)thio)-6-((R)-1-hydroxyethyl)-4-methyl-7-oxo-1-azabicyclo[3.2.0]hept-2-ene-2-carboxylic acid]	< 1	1 to 4 (≈ 2.53 to 10.1 µM)	8 to 32 (≈ 20.2 to 80.9 µM)	< 1	8 to 32 (≈ 20.2 to 80.9 µM)	8 to 32 (≈ 20.2 to 80.9 µM)	8 to 32 (≈ 20.2 to 80.9 µM)	1 to 4 (≈ 2.53 to 10.1 µM)
C[C@@H](O)[C@H]1C(=O)N2C(C(=O)O)=C(SC3CN(Cc4cnc(N)nc4)C3)[C@H](C)[C@H]12 [Example 22, (4R,5S,6S)-3-((1-((2-aminopyrimidin-5-yl)methyl)azetidin-3-yl)thio)-6-((R)-1-hydroxyethyl)-4-methyl-7-oxo-1-azabicyclo[3.2.0]hept-2-ene-2-carboxylic acid]	< 1	1 to 4 (≈ 2.47 to 9.86 µM)	8 to 32 (≈ 19.7 to 78.9 µM)	< 1	8 to 32 (≈ 19.7 to 78.9 µM)	1 to 4 (≈ 2.47 to 9.86 µM)	> 32	1 to 4 (≈ 2.47 to 9.86 µM)
C[C@@H](O)[C@H]1C(=O)N2C(C(=O)O)=C(S[C@H]3C[C@@H](N[C@H]4CC[C@H](N)C4)C3)[C@H](C)[C@H]12 [Example 75, (4R,5S,6S)-3-(((1R,3S)-3-(((1S,3S)-3-aminocyclopentyl)amino)cyclobutyl)thio)-6-((R)-1-hydroxyethyl)-4-methyl-7-oxo-1-azabicyclo[3.2.0]hept-2-ene-2-carboxylic acid]	< 1	1 to 4 (≈ 2.53 to 10.1 µM)	1 to 4 (≈ 2.53 to 10.1 µM)	< 1	8 to 32 (≈ 20.2 to 80.9 µM)	1 to 4 (≈ 2.53 to 10.1 µM)	1 to 4 (≈ 2.53 to 10.1 µM)	8 to 32 (≈ 20.2 to 80.9 µM)
CNC[C@H]1CC[C@H](CN2CC(SC3=C(C(=O)O)N4C(=O)[C@H]([C@@H](C)O)[C@H]4[C@H]3C)C2)CC1 [Example 47, (4R,5S,6S)-6-((R)-1-hydroxyethyl)-4-methyl-3-((1-(((1r,4R)-4-((methylamino)methyl)cyclohexyl)methyl)azetidin-3-yl)thio)-7-oxo-1-azabicyclo[3.2.0]hept-2-ene-2-carboxylic acid]	< 1	1 to 4 (≈ 2.29 to 9.14 µM)	1 to 4 (≈ 2.29 to 9.14 µM)	< 1	1 to 4 (≈ 2.29 to 9.14 µM)	1 to 4 (≈ 2.29 to 9.14 µM)	8 to 32 (≈ 18.3 to 73.1 µM)	1 to 4 (≈ 2.29 to 9.14 µM)
C[C@@H](O)[C@H]1C(=O)N2C(C(=O)O)=C(S[C@@H]3CCN([C@H]4CC[C@@H](CN)CC4)C3)[C@H](C)[C@H]12 [Example 57, (4R,5S,6S)-3-(((R)-1-((1S,4S)-4-(aminomethyl)cyclohexyl)pyrrolidin-3-yl)thio)-6-((R)-1-hydroxyethyl)-4-methyl-7-oxo-1-azabicyclo[3.2.0]hept-2-ene-2-carboxylic acid]	< 1	1 to 4 (≈ 2.36 to 9.44 µM)	1 to 4 (≈ 2.36 to 9.44 µM)	< 1	1 to 4 (≈ 2.36 to 9.44 µM)	1 to 4 (≈ 2.36 to 9.44 µM)	8 to 32 (≈ 18.9 to 75.5 µM)	1 to 4 (≈ 2.36 to 9.44 µM)
C[C@@H](O)[C@H]1C(=O)N2C(C(=O)O)=C(SC3CN([C@H]4C[C@@H](CN)C4)C3)[C@H](C)[C@H]12 [Example 1, (4R,5S,6S)-3-((1-((1s,3S)-3-(aminomethyl)cyclobutyl)azetidin-3-yl)thio)-6-((R)-1-hydroxyethyl)-4-methyl-7-oxo-1-azabicyclo[3.2.0]hept-2-ene-2-carboxylic acid]	< 1	1 to 4 (≈ 2.62 to 10.5 µM)	8 to 32 (≈ 21 to 83.9 µM)	< 1	8 to 32 (≈ 21 to 83.9 µM)	1 to 4 (≈ 2.62 to 10.5 µM)	> 32	1 to 4 (≈ 2.62 to 10.5 µM)
C[C@@H](O)[C@H]1C(=O)N2C(C(=O)O)=C(S[C@H]3C[C@H](N[C@H]4CC[C@@H](N)C4)C3)[C@H](C)[C@H]12 [Example 74, (4R,5S,6S)-3-(((1S,3R)-3-(((1S,3R)-3-aminocyclopentyl)amino)cyclobutyl)thio)-6-((R)-1-hydroxyethyl)-4-methyl-7-oxo-1-azabicyclo[3.2.0]hept-2-ene-2-carboxylic acid]	< 1	1 to 4 (≈ 2.53 to 10.1 µM)	8 to 32 (≈ 20.2 to 80.9 µM)	< 1	8 to 32 (≈ 20.2 to 80.9 µM)	8 to 32 (≈ 20.2 to 80.9 µM)	1 to 4 (≈ 2.53 to 10.1 µM)	8 to 32 (≈ 20.2 to 80.9 µM)
C[C@@H](O)[C@H]1C(=O)N2C(C(=O)O)=C(SC3CN([C@@H]4CC[C@H](NC(=N)N)C4)C3)[C@H](C)[C@H]12 [Example 12, (4R,5S,6S)-3-((1-((1R,3S)-3-guanidinocyclopentyl)azetidin-3-yl)thio)-6-((R)-1-hydroxyethyl)-4-methyl-7-oxo-1-azabicyclo[3.2.0]hept-2-ene-2-carboxylic acid]	< 1	1 to 4 (≈ 2.36 to 9.44 µM)	1 to 4 (≈ 2.36 to 9.44 µM)	< 1	1 to 4 (≈ 2.36 to 9.44 µM)	1 to 4 (≈ 2.36 to 9.44 µM)	8 to 32 (≈ 18.9 to 75.6 µM)	1 to 4 (≈ 2.36 to 9.44 µM)
C[C@@H](O)[C@H]1C(=O)N2C(C(=O)O)=C(SC3CN([C@H]4CC[C@@H](N)C4)C3)[C@H](C)[C@H]12 [Example 7, (4R,5S,6S)-3-((1-((1S,3R)-3-aminocyclopentyl)azetidin-3-yl)thio)-6-((R)-1-hydroxyethyl)-4-methyl-7-oxo-1-azabicyclo[3.2.0]hept-2-ene-2-carboxylic acid]	< 1	1 to 4 (≈ 2.62 to 10.5 µM)	8 to 32 (≈ 21 to 83.9 µM)	< 1	8 to 32 (≈ 21 to 83.9 µM)	1 to 4 (≈ 2.62 to 10.5 µM)	8 to 32 (≈ 21 to 83.9 µM)	1 to 4 (≈ 2.62 to 10.5 µM)
C[C@@H](O)[C@H]1C(=O)N2C(C(=O)O)=C(SC3CN(CC4CCN(C)CC4)C3)[C@H](C)[C@H]12 [Example 40, (4R,5S,6S)-6-((R)-1-hydroxyethyl)-4-methyl-3-((1-((1-methylpiperidin-4-yl)methyl)azetidin-3-yl)thio)-7-oxo-1-azabicyclo[3.2.0]hept-2-ene-2-carboxylic acid]	< 1	1 to 4 (≈ 2.44 to 9.77 µM)	8 to 32 (≈ 19.5 to 78.1 µM)	< 1	8 to 32 (≈ 19.5 to 78.1 µM)	1 to 4 (≈ 2.44 to 9.77 µM)	8 to 32 (≈ 19.5 to 78.1 µM)	1 to 4 (≈ 2.44 to 9.77 µM)
